Results from ChEMBL document CHEMBL1137195, “SAR and pharmacokinetic studies on phenethylamide inhibitors of the hepatitis C virus NS3/NS4A serine protease” (Bioorg Med Chem Lett, 2004).
pKi: −log10 of the molar value.

Legend:
[1] = biological target: Hepatitis C virus serine protease, NS3/NS4A (Hepatitis C virus, UniProt A3EZI9+D2K2A8); experiment: (§1) Inhibitory activity against Hepatitis C virus Non structural protein 3 serine protease/Non structural protein 4A serine protease; format: protein-complex assay, Hepacivirus hominis
[2] = biological target: T1, Hepatitis C virus serine protease, NS3/NS4A (Hepatitis C virus, UniProt D2K2A8+A3EZI9); experiment: as §1; format: protein-complex assay, Hepacivirus hominis
[3] = Half life in rats; format: ADME; conditions: rat, in vivo
[4] = Area under curve in rats; format: ADME; conditions: rat, in vivo
[5] = plasma clearance in rats; format: ADME, organism-based; conditions: rat
[6] = Volume distribution in rats; format: ADME, organism-based; conditions: rat, in vivo; read-out: Vdss
[7] = biological target: T1, Hepatitis C virus serine protease, NS3/NS4A; experiment: Inhibitory activity against Hepatitis C virus Non structural protein 3 serine protease/Non structural protein 4A serine protease: Not active at 50 uM; format: protein-complex assay, Hepacivirus hominis
[8] = Area under curve in rats at 2 mg/kg; format: ADME, organism-based; set-up: dose 2 mg/kg; conditions: rat, in vivo
[9] = plasma clearance in rats at 2 mg/kg; format: ADME, organism-based; set-up: dose 2 mg/kg; conditions: rat
[10] = Volume distribution in rats at 2 mg/kg; format: ADME, organism-based; set-up: dose 2 mg/kg; conditions: rat, in vivo, read-out: Vdss
[11] = Half life in rats at 2 mg/kg; format: ADME, organism-based; set-up: dose 2 mg/kg; conditions: rat, in vivo

Hepatitis C virus serine protease, NS3/NS4A (Hepatitis C virus, UniProt A3EZI9+D2K2A8), sequence (D2K2A8 whole entry): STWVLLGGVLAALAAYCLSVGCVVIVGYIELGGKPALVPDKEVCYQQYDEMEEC
Hepatitis C virus serine protease, NS3/NS4A (Hepatitis C virus, UniProt A3EZI9+D2K2A8), sequence (A3EZI9 whole entry): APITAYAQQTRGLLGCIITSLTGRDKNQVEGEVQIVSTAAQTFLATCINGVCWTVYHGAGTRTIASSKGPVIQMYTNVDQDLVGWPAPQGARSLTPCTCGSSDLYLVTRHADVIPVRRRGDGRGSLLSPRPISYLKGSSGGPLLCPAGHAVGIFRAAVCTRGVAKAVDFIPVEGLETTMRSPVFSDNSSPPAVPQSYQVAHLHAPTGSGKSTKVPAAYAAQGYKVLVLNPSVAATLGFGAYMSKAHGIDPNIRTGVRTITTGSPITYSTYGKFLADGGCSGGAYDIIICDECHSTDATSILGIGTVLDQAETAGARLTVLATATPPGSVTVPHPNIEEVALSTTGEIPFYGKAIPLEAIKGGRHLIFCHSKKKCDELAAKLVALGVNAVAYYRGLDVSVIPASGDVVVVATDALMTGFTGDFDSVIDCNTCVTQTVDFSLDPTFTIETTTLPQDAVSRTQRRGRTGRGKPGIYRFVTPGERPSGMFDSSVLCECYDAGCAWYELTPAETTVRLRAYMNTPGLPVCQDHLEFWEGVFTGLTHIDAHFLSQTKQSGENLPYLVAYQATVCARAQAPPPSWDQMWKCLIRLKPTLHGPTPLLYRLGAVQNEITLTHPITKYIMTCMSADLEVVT
T1 sequence (D2K2A8 whole entry): as the sequence (D2K2A8 whole entry) above
T1 sequence (A3EZI9 whole entry): as the sequence (A3EZI9 whole entry) above

CC(C)COC(=O)N[C@H](C(=O)N[C@@H](CC(C)C)C(=O)N[C@@H](CC(F)F)C(=O)NCCc1ccc(C(=O)O)cc1Cl)C(C)C
pKi [1]: 5.92

CC(C)COC(=O)N[C@H](C(=O)N1C[C@H](c2ccccc2)C[C@H]1C(=O)N[C@@H](CC(F)F)C(=O)NCCc1cccc(/C=C/C(=O)O)c1)C(C)C
pKi [1]: 5.89

CC(C)COC(=O)N[C@H](C(=O)N1CC(OCc2ccccc2)C[C@@H]1C(=O)N[C@@H](CC(F)F)C(=O)NCCc1c(F)cc(C(=O)O)cc1F)C(C)C (stereo in doubt; trans)
pKi [2]: 6.26
half-life [3]: 48 min
AUC [4]: 0.4 µM·h
clearance [5]: 222 mL/min/kg
Vd [6]: 4.5 L/kg

CC(C)COC(=O)N[C@H](C(=O)N1C[C@H](C2CCCCC2)C[C@H]1C(=O)N[C@@H](CC(F)F)C(=O)NCCc1c(F)ccc(OCC(=O)O)c1F)C(C)C
pKi [1]: 6.72

CC(C)COC(=O)N[C@H](C(=O)N1CC(OCc2ccccc2)C[C@@H]1C(=O)N[C@@H](CC(F)F)C(=O)NCCc1c(F)cc(C(=O)O)cc1F)C(C)C (stereo in doubt; cis)
pKi [2]: 5.35

CC(C)COC(=O)N[C@H](C(=O)N1C[C@H](c2ccccc2)C[C@H]1C(=O)N[C@@H](CC(F)F)C(=O)NCCc1cccc(OC(C(=O)O)c2ccccc2)c1)C(C)C (some centres undefined)
pKi [1]: 6.00

CC(C)COC(=O)N[C@H](C(=O)N1C[C@H](c2ccccc2)C[C@H]1C(=O)N[C@@H](CC(F)F)C(=O)NCCc1cc(/C=C/C(=O)O)ccc1F)C(C)C
pKi [1]: 6.46

COc1ccc2c(O[C@@H]3C[C@@H](C(=O)N[C@@H](CC(F)F)C(=O)NCCc4c(F)cc(C(=O)O)cc4F)N(C(=O)C(NC(=O)OCC(C)C)C(C)(C)C)C3)cc(-c3ccccc3)nc2c1 (some centres undefined)
pKi [1]: 7.52

CC(C)COC(=O)N[C@H](C(=O)N1C[C@H](C2CCCCC2)C[C@H]1C(=O)N[C@@H](CC(F)F)C(=O)NCCc1c(F)ccc(OC(C)C(=O)O)c1F)C(C)C (some centres undefined)
pKi [1]: 6.92

CC(C)COC(=O)N[C@H](C(=O)N1C[C@H](C2CCCCC2)C[C@H]1C(=O)N[C@@H](CC(F)F)C(=O)NCCc1c(F)cc(-c2nnn[nH]2)cc1F)C(C)C
pKi [1]: 7.00
half-life [3]: 74 min
AUC [4]: 12.4 µM·h
clearance [5]: 9 mL/min/kg
Vd [6]: 0.15 L/kg

CC(C)COC(=O)N[C@H](C(=O)N1C[C@H](c2ccccc2)C[C@H]1C(=O)N[C@@H](CC(F)F)C(=O)NCCc1cccc(/C=C/C(=O)O)c1F)C(C)C
pKi [1]: 6.40

COC(=O)c1cc(F)c(CCNC(=O)[C@H](CC(F)F)NC(=O)[C@@H]2C[C@@H](C3CCCCC3)CN2C(=O)[C@@H](NC(=O)OCC(C)C)C(C)C)c(F)c1
Ki [7]: Not Active

CCC(Nc1cccc(CCNC(=O)[C@H](CC(F)F)NC(=O)[C@@H]2C[C@@H](C3CCCCC3)CN2C(=O)[C@@H](NC(=O)OCC(C)C)C(C)C)c1)C(=O)O (some centres undefined)
pKi [1]: 6.30

CC(C)COC(=O)N[C@H](C(=O)N1CC(c2ccccc2)C[C@@H]1C(=O)N[C@@H](CC(F)F)C(=O)NCCc1c(F)cc(C(=O)O)cc1F)C(C)C (some centres undefined)
pKi [2]: 6.35
half-life [3]: 72 min
AUC [4]: 1.3 µM·h
clearance [5]: 36 mL/min/kg
Vd [6]: 2.4 L/kg

CC(C)COC(=O)N[C@H](C(=O)N[C@@H](CC(C)C)C(=O)N[C@@H](CC(F)F)C(=O)NCCc1c(F)cc(C(=O)O)cc1F)C(C)C
pKi [1]: 6.40

CC(C)COC(=O)N[C@H](C(=O)N1C[C@H](C2CCCCC2)C[C@H]1C(=O)N[C@@H](CC(F)F)C(=O)NCCc1c(F)cc(C(=O)NS(C)(=O)=O)cc1F)C(C)C
pKi [1]: 6.35
AUC [8]: 0.9 µM·h
clearance [9]: 46 mL/min/kg
Vd [10]: 0.8 L/kg
half-life [11]: 19 min

CC(C)COC(=O)N[C@H](C(=O)N1C[C@H](C2CCCCC2)C[C@H]1C(=O)N[C@@H](CC(F)F)C(=O)NCCc1cccc(NC(C(=O)O)c2ccccc2)c1)C(C)C (some centres undefined)
pKi [1]: 6.19

CC(C)COC(=O)N[C@H](C(=O)N1CC(C2CCCCC2)C[C@@H]1C(=O)N[C@@H](CC(F)F)C(=O)NCCc1c(F)cc(C(=O)O)cc1F)C(C)C (some centres undefined)
pKi [2]: 6.46
half-life [3]: 15 min
AUC [4]: 2.7 µM·h
clearance [5]: 44 mL/min/kg
Vd [6]: 0.45 L/kg

COc1ccc2c(O[C@@H]3C[C@@H](C(=O)N[C@@H](CC(F)F)C(=O)NCCc4c(F)cc(C(=O)O)cc4F)N(C(=O)[C@@H](NC(=O)OCC(C)C)C(C)C)C3)cc(-c3csc(NC(C)C)n3)nc2c1
pKi [1]: 7.70
